Reference: US8263044B2, “Stilbene like compounds as novel HDAC inhibitors” (Orchid Research Laboratories Limited, priority 2005, dated 2012)
Blank lines part the entries; values can stand above or below the compound they belong to.

Columns and labels:
[1] = tested on: MDAMB231/U251; test: cells; settings: 48 h, read-out: MDAMB231/U251 GI50
Experimental: (§1) Experimental drugs are screened for anti-cancer activity in three cell lines for their GI50, TGI and LC50 values (using five concentrations for each compound). The cell lines are maintained in DMEM containing 10% fetal bovine serum. 96 well micro titer plates are inoculated with cells in 100 μL for 24 h at 37° C., 5% CO2, 95% air and 100% relative humidity. 5000 HCT 116 cells/well, 5000 NCIH 460 cells/well and 5000 U251 cells/well are plated. A separate plate with these cell lines is also inoculated to determine cell viability before the addition of the compounds (T0) (See Table I).
(§2) Following 24-hour incubation, experimental drugs are added to the 96 well plates. Each plate contains one of the above cell lines and the following in triplicate: five different concentrations (0.01, 0.1, 1, 10 and 100 μM) of four different compounds, appropriate dilutions of a cytotoxic standard and control (untreated) wells. Compounds are dissolved in DMSO to make 20 mM stock solutions on the day of drug addition and frozen at −20° C. Serial dilutions of these 20 mM stock solutions are made in complete growth medium such that 100 μL of these drug solutions in medium, of final concentrations equaling 0.01, 0.1, 1, 10 and 100 μM can be added to the cells in triplicate. […] (See Table I).
(§3) For T0 measurement, 24 hours after seeding the cells, 10 μL of 3-(4,5-Dimethyl-2-thiazolyl)-2,5-diphenyl-2H-tetrazolium (MTT) solution per well is added and incubation carried out for 3 hours at 37° C., 5% CO2, 95% air and 100% relative humidity, protected from light. Cells incubated with compounds for 48 hours are treated similarly except with the addition of 20 μL MTT solution per well and a subsequent incubation under the same conditions. After 3 hours of MTT incubation, well contents are aspirated carefully followed by addition of 150 μL DMSO per well. Plates are agitated to ensure solution of the formazan crystals in DMSO and absorbance read at 570 nm. (See Table I).
(§4) Percent growth is calculated for each compound's concentration relative to the control and zero measurement wells (T0; viability right before compound addition).
(§5) If a test well's O.D. value is lower than the T0 measurement for that cell line, then, % Growth=(test−zero)/zero×100

[2] = tested on: HCT 116 cells; test: cells; settings: Homo sapiens, HCT-116, 48 h; for GI50: read-out: HCT116 GI50; for CC50: read-out: HCT116 LC50
Experimental: as §1, §2, §3, §4, §5

[3] = tested on: NCIH 460 cells; test: cells; settings: Homo sapiens, NCI-H460, 48 h; for GI50: read-out: NCIH460 GI50; for CC50: read-out: NCIH460 LC50
Experimental: as §1, §2, §3, §4, §5

[4] = tested on: HDAC activity (Mouse Liver Extract); test: Histone Deacetylase (HDAC) Inhibition Assay using Boc-Lys (Ac)-AMC Substrate; format: biochemical; settings: mouse liver enzyme; for HDAC Inhibition 1 μM: inhibitor at 1 μM; for HDAC Inhibition 1 μM / HDAC Inhibition 10 μM: in % (unit assumed); for HDAC Inhibition 10 μM: inhibitor at 10 μM
Experimental: Histone Deacetylase (HDAC) Inhibition Assay using Boc-Lys (Ac)-AMC Substrate: Inhibition of HDAC has been implicated to modulate transcription and to induce apoptosis or differentiation in cancer cells. The fluorometric assay provides a fast and fluorescence based method that eliminates radioactivity, extractions or chromatography, as used in traditional assays. The assay based on two steps. First, the HDAC fluorometric substrate, which comprises an acetylated lysine side chain, is incubated with a sample containing HDAC activity (Mouse Liver Extract). Deacetylation of the substrate sensitizes the substrate, in the second step; treatment with the Trypsin stop solution produces a fluorophore that can be easily analyzed using fluorescence plate reader.
Assay was done in 96 well black microplate and total volume of the assay is 100 ul. Mouse liver enzyme is diluted 1:6 with HDAC buffer. Enzyme cocktail made of 10 ul of diluted enzyme and 30 ul of HDAC buffer. 40 ul of enzyme cocktail dispensed into each well. 10 ul of different concentrations of inhibitor added in to each well, except enzyme control well. Preincubated the plate at 30° C. for 5 minutes. The HDAC reaction is started by adding 50 ul of HDAC substrate (Boc-Lys (Ac)-AMC Substrate) solution. Incubated the plate at 30° C. for 30 minutes. Adding 100 ul of Trypsin stop solution stops the reaction. The plate is incubated again at 30° C. for 20-30 minutes. The release of AMC is monitored by measuring the fluorescence at excitation wavelength of 365 or 360 nm and emission wavelength of 440 or 460 nm. Buffer and substrate alone kept for blank subtraction. (Dennis Wegener et al, Anal. Biochem, 321, 2003, 202-208).

[5] = tested on: MDAMB231/U251; test: cells; settings: 48 h, read-out: MDAMB231/U251 LC50
[6] = tested on: NCIH460, HCT116, MDAMB231/U251; test: Anti-cancer screen, mean GI50 over the cell lines; format: cell-based; settings: mean over the three cell lines; no unit in table
Experimental: as §1, §2, §3
Percent growth is calculated for each compound's concentration relative to the control and zero measurement wells (T0; viability right before compound addition). […]

- melting point: 78.5 to 79 °C
Structure (SMILES): Cc1ncsc1C=C(C(=O)NCCCCCC(=O)NO)c1ccc(Cl)cc1 (stereo in doubt) [Example 12, (2Z)-3-(4-Methyl-1,3-thiazol-5-yl)-2-(4-chlorophenyl)-N-[6-(hydroxyamino)-6-oxohexyl]acrylamide]

- melting point: 163.8 to 164.3 °C
Structure (SMILES): O=C(CCCCCNC(=O)/C(=C\c1ccc(F)c(Cl)c1)c1ccc(F)cc1)NO [Example 10, (2Z)-3-(3-Chloro,4-fluorophenyl)-2-(4-fluorophenyl)-N-[6-(hydroxyamino)-6-oxohexyl]acrylamide]

- melting point: 144.1 to 144.6 °C
Structure (SMILES): COc1cc(/C=C(\C(=O)NCCCCCC(=O)NO)c2ccc(O)cc2)cc(OC)c1 [Example 11, (2Z)-3-(3,5-dimethoxyphenyl)-2-(4-hydroxyphenyl)-N-[6-(hydroxyamino)-6-oxohexyl]acrylamide]

- melting point: 135.8 to 139.4 °C
Structure (SMILES): O=C(CCCCCNC(=O)/C(=C\c1ccc(F)c(F)c1)c1ccc(F)cc1)NO [Example 21]

- melting point: 95.1 to 103.6 °C
Structure (SMILES): O=C(CCCCCNC(=O)/C(=C\c1ccc(F)c(C(F)(F)F)c1)c1ccc(C(F)(F)F)cc1)NO [Example 22, (2Z)-3-(4-Fluoro-3-trifluoromethyl-phenyl)-2-(4-trifluoromethylphenyl)-N-[6-(hydroxyamino)-6-oxohexyl]acrylamide]

- melting point: 79.9 to 86.7 °C
Structure (SMILES): COc1cc(/C=C(\C(=O)NCCCCCC(=O)NOCc2ccccc2)c2ccc(F)cc2)cc(OC)c1 [Example 33]

Structure (SMILES): O=C(CCCCCNC(=O)/C(=C\c1ccc(Cl)o1)c1ccc(F)cc1)NO [Example 37, (2Z)-3-(5-Chloro-2-furyl)-2-(4-fluorophenyl)-N-[6-(hydroxyamino)-6-oxohexyl]acrylamide]
- GI50 [1]: 5 µM
- GI50 [2]: 6 µM
- CC50 [2]: 90 µM
- GI50 [3]: 26 µM
- CC50 [3]: 90 µM
- HDAC Inhibition 1 μM [4]: 56.87
- HDAC Inhibition 10 μM [4]: 83.89
- CC50 [5]: 80 µM
- GI50 [6]: 12.3 µM

Structure (SMILES): CSc1ccc(/C=C(\C(=O)NCCCCCC(=O)NO)c2ccc(C(F)(F)F)cc2)cc1 [Example 38, (2Z)-3-(4-Thiomethylphenyl)-2-(4-trifluoromethylphenyl)-N-[6-(hydroxyamino)-6-oxohexyl]acrylamide]
- GI50 [1]: 0.07 µM
- GI50 [2]: 5.5 µM
- CC50 [2]: 65 µM
- GI50 [3]: 6 µM
- CC50 [3]: 64 µM
- HDAC Inhibition 1 μM [4]: 59.26
- HDAC Inhibition 10 μM [4]: 97.74
- CC50 [5]: 60 µM
- GI50 [6]: 3.9 µM

Structure (SMILES): COc1ccc(/C(=C/c2c(F)ccc(F)c2F)C(=O)NCCCCCC(=O)NO)cc1 [Example 40, (2Z)-3-(2,3,6-Trifluorophenyl)-2-(4-methoxyphenyl)-N-[6-(hydroxyamino)-6-oxohexyl]acrylamide]
- GI50 [1]: 1 µM
- GI50 [2]: 5.8 µM
- CC50 [2]: > 100 µM
- GI50 [3]: 3 µM
- CC50 [3]: > 100 µM
- HDAC Inhibition 1 μM [4]: 79.97
- HDAC Inhibition 10 μM [4]: 96.16
- CC50 [5]: 80 µM
- GI50 [6]: 3.27 µM

Structure (SMILES): CSc1ccc(/C=C(\C(=O)NCCCCCC(=O)NO)c2ccc([N+](=O)[O-])cc2)cc1 [Example 41, (2Z)-3-(4-Thiomethylphenyl)-2-(4-nitrophenyl)-N-[6-(hydroxyamino)-6-oxohexyl]acrylamide]
- GI50 [1]: 9 µM
- GI50 [2]: 6 µM
- CC50 [2]: 90 µM
- GI50 [3]: 15 µM
- CC50 [3]: 94 µM
- HDAC Inhibition 1 μM [4]: 68.69
- HDAC Inhibition 10 μM [4]: 92.83
- CC50 [5]: 90 µM
- GI50 [6]: 10 µM

- melting point: 100.3 to 103.9 °C
Structure (SMILES): O=C(CCCCCNC(=O)/C(=C\c1ccc(F)c(Cl)c1)c1ccc(O)cc1)NO [Example 42, (2Z)-3-(3-Chloro-4-fluorophenyl)-2-(4-hydroxyphenyl)-N-[6-(hydroxyamino)-6-oxohexyl]acrylamide]

Structure (SMILES): CSc1ccc(/C=C(\C(=O)NCCCCCC(=O)NO)c2cccs2)cc1 [Example 43, (2Z)-3-(4-Thiomethylphenyl)-2-(thiophene-2-yl)-N-[6-(hydroxyamino)-6-oxohexyl]acrylamide]
- GI50 [1]: 0.05 µM
- GI50 [2]: 5 µM
- CC50 [2]: 70 µM
- GI50 [3]: 10 µM
- CC50 [3]: > 100 µM
- HDAC Inhibition 1 μM [4]: 89.26
- HDAC Inhibition 10 μM [4]: 100
- IC50 [4]: 0.26 µM
- CC50 [5]: 75 µM
- GI50 [6]: 5.02 µM

- melting point: 181 to 185.2 °C
Structure (SMILES): O=C(CCCCCNC(=O)/C(=C\c1ccc(Cl)s1)c1ccc(F)cc1)NO [Example 44, (2Z)-3-(5-Chlorothiophen-2-yl)-2-(4-fluorophenyl)-N-[6-(hydroxyamino)-6-oxohexyl]acrylamide]

Structure (SMILES): COc1cc(/C=C(\C(=O)NCCCCCC(=O)NO)c2ccc(F)cc2)ccc1O [Example 46, (2Z)-3-(4-Hydroxy-3-methoxyphenyl)-2-(4-fluorophenyl)-N-[6-(hydroxyamino)-6-oxohexyl]acrylamide]
- GI50 [1]: 3.5 µM
- GI50 [2]: 7 µM
- CC50 [2]: > 100 µM
- GI50 [3]: 5 µM
- CC50 [3]: > 100 µM
- HDAC Inhibition 1 μM [4]: 60.53
- HDAC Inhibition 10 μM [4]: 70.82
- CC50 [5]: > 100 µM
- GI50 [6]: 5 µM

Structure (SMILES): O=C(CCCCCNC(=O)/C(=C\c1ccc(C(F)(F)F)cc1)c1ccc(F)cc1)NO [Example 47, (2Z)-3-(4-Trifluoromethylphenyl)-2-(4-fluorophenyl)-N-[6-(hydroxyamino)-6-oxohexyl]acrylamide]
- GI50 [1]: 7.5 µM
- GI50 [2]: 9 µM
- CC50 [2]: 95 µM
- GI50 [3]: 13 µM
- CC50 [3]: 98 µM
- HDAC Inhibition 1 μM [4]: 49.92
- HDAC Inhibition 10 μM [4]: 87.19
- CC50 [5]: > 100 µM
- GI50 [6]: 9.8 µM

- melting point: 153 to 157 °C
Structure (SMILES): COc1cc(/C=C(\C(=O)NCCCCCC(=O)NO)c2ccc(F)cc2)cc(OC)c1OC [Example 48, (2Z)-3-(3,4,5-Trimethoxyphenyl)-2-(4 fluorophenyl)-N-[6-(hydroxyamino)-6-oxohexyl]acrylamide]

Structure (SMILES): CC(=O)N(O)C(=O)CCCCCNC(=O)/C(=C\c1ccc(Cl)o1)c1ccc(F)cc1 [Example 53, N-Acetyl-6-{[(2Z)-3-(5-chloro-2-furyl)-2-(4-fluorophenyl)-acrylamide]}-N-hydroxyhexanamide]
- GI50 [1]: 5 µM
- GI50 [2]: 5 µM
- CC50 [2]: 65 µM
- GI50 [3]: 13 µM
- CC50 [3]: 75 µM
- HDAC Inhibition 1 μM [4]: 69.80
- HDAC Inhibition 10 μM [4]: 95.25
- IC50 [4]: 0.06 µM
- CC50 [5]: 70 µM
- GI50 [6]: 7.7 µM

- melting point: 142.1 to 145.4 °C
Structure (SMILES): CSc1ccc(/C=C(\C(=O)NCCCCCC(=O)NC(Cc2ccc(O)cc2)C(=O)NO)c2ccc(F)cc2)cc1 (stereo not shown) [Example 54]

- melting point: 162.4 to 165.2 °C
Structure (SMILES): COc1c(F)c(F)c(/C(=C/c2ccc(F)cc2)C(=O)NCCCCCC(=O)NC(Cc2ccc(O)cc2)C(=O)NO)c(F)c1F (stereo not shown) [Example 56]
